Read-outs that look alike come from different tables or passages of the source.
Target: T1, mouse TMEM16A mutant G510P (Mus musculus, UniProt Q8BHY3, G510P)
T1 construct: expressed in transfected cells; host or cells: HEK293T
T1 sequence (Q8BHY3 1-960 G510P): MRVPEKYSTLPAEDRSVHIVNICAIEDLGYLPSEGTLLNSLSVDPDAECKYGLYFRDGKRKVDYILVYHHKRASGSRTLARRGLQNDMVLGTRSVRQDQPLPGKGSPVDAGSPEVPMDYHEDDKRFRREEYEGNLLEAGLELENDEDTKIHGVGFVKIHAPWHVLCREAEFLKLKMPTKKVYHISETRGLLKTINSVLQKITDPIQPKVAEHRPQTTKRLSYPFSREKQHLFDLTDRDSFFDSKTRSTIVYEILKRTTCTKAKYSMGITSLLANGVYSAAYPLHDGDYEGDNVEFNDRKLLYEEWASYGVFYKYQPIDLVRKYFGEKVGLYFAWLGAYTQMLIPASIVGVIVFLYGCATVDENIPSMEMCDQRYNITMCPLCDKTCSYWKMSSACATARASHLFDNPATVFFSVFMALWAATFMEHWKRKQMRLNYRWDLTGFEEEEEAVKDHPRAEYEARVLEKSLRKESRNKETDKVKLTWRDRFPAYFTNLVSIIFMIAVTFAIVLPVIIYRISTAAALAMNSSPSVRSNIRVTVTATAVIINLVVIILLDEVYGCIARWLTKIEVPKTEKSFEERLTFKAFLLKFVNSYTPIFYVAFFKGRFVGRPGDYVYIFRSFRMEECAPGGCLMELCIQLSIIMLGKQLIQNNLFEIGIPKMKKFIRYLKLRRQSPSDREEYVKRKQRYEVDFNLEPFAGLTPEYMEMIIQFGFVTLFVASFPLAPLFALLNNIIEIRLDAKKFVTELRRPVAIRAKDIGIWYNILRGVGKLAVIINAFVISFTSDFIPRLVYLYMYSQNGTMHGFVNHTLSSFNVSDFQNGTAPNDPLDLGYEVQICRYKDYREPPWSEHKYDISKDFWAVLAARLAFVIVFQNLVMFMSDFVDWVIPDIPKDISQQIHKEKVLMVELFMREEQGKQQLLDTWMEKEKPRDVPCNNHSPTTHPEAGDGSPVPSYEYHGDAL
Experiment: Inside-out patch recording of 1PBC block, mutant G510P
Assay type: cell-based
Details: for remaining activity at 3 µM: 1PBC 3; for remaining activity at 3 µM / remaining activity at 10 µM / remaining activity at 30 µM / remaining activity at 100 µM: read-out: fraction of unblocked current; for remaining activity at 10 µM: 1PBC 10; for remaining activity at 30 µM: 1PBC 30; for remaining activity at 100 µM: 1PBC 100
Experimental: HEK293T cells (ATCC CRL-1573) were maintained in Dulbecco’s modified Eagle’s medium (DMEM; Sigma-Aldrich) supplemented with 10 U ml^−1 penicillin, 0.1 mg ml^−1 streptomycin (Sigma-Aldrich), 2 mM L-glutamine (Sigma-Aldrich), and 10% FBS (Sigma-Aldrich) in a humidified atmosphere containing 5% CO2 at 37 °C. HEK293S GnTI^− cells (ATCC CRL-3022) were maintained in HyClone HyCell TransFx-H medium (GE Healthcare) supplemented with 10 U ml^−1 penicillin, 0.1 mg ml^−1 streptomycin, 4 mM L-glutamine, 0.15% poloxamer 188 (Sigma-Aldrich), and 1% FBS in an atmosphere containing 5% CO2 at 185 rpm at 37 °C. The ac splice variant of mouse TMEM16A (UniProt ID: Q8BHY3), mouse TMEM16B (UniProt ID: Q8CFW1), or mouse TMEM16F (UniProt ID: Q6P9J9) bearing a 3C cleavage site, a Venus YFP, a Myc tag, and a Streptavidin-binding peptide (SBP) downstream of the open reading frame in a modified pcDNA3.1 vector (Invitrogen) were used as described previously[21],[31]. Mutations were introduced using a modified QuikChange method[58] and were verified by sequencing.
HEK293T cells were transfected with 3–4 μg DNA per 6 cm Petri dish using the calcium phosphate co-precipitation method and were used within 24–96 h after transfection. Recordings were performed on inside-out patches excised from HEK293T cells expressing the construct of interest. Patch pipettes were pulled from borosilicate glass capillaries (O.D. 1.5 mm, I.D. 0.86 mm, Sutter Instrument) and were fire-polished with a microforge (Narishige) before use. Pipette resistance was typically 3–8 MΩ when filled with the recording solutions detailed below. Seal resistance was typically 4 GΩ or higher. Voltage-clamp recordings were made using Axopatch 200B, Digidata 1550, and Clampex 10.7 (Molecular Devices). Analog signals were filtered with the in-built 4-pole Bessel filter at 10 kHz and were digitized at 20 kHz. Solution exchange was achieved using a gravity-fed system through a theta glass pipette mounted on an ultra-fast piezo-driven stepper (Siskiyou). […] All recordings were performed at 20 °C.
A symmetrical ionic condition was used throughout. Stock solution with Ca^2+-EGTA contained 150 mM NaCl, 5.99 mM Ca(OH)2, 5 mM EGTA, and 10 mM HEPES at pH 7.40. Stock solution with EGTA contained 150 mM NaCl, 5 mM EGTA, and 10 mM HEPES at pH 7.40. Free Ca^2+ concentrations were adjusted by mixing the stock solutions at the required ratios calculated using the WEBMAXC program (http://web.stanford.edu/~cpatton/webmaxcS.htm). Patch pipettes were filled with the stock solution with Ca^2+-EGTA, which has a free Ca^2+ concentration of 1 mM. 1PBC (ChemBridge) stock was reconstituted in anhydrous DMSO (Sigma-Aldrich) at 100 mM and stored at −20 °C. Working solutions with 1PBC were prepared by serial dilution. Unless otherwise stated, experiments were performed at a saturating Ca^2+ concentration as shown in Supplementary Table 1 and the primary data were corrected for current rundown as described previously[21],[25].
Concentration-response relations, obtained from the ratio of the I-V plots before and after the application of the blocker, were fitted to the Hill equation,1 I/Imax=1/1+IC50/[blocker]^h where I/Imax is the normalized current responses, IC50 defines the concentration at which inhibition is at its half-maximum, and h is the Hill coefficient.

N#Cc1c(C(F)(F)F)cc(O)n2c1nc1ccccc12 [1PBC]
IC50 (0 mV, 15 µM Ca2+): 65.7 µM
I/Imax_+80mV (3 μM 1PBC): 0.9738
I/Imax_-80mV (3 μM 1PBC, -80 mV): 0.9802
I/Imax_+80mV (10 μM 1PBC): 0.8477
I/Imax_-80mV (10 μM 1PBC, -80 mV): 0.885
I/Imax_+80mV (30 μM 1PBC): 0.6076
I/Imax_-80mV (30 μM 1PBC, -80 mV): 0.6861
I/Imax_+80mV (100 μM 1PBC): 0.3872
I/Imax_-80mV (100 μM 1PBC, -80 mV): 0.4945
remaining activity at 3 µM (0 mV): 95.8%
remaining activity at 3 µM (20 mV): 95.6%
remaining activity at 3 µM (40 mV): 96.9%
remaining activity at 3 µM (60 mV): 95.5%
remaining activity at 3 µM (80 mV): 97.4%
remaining activity at 3 µM (100 mV): 99.8%
remaining activity at 3 µM (120 mV): 99.8%
remaining activity at 3 µM (140 mV): 104%
remaining activity at 3 µM (-20 mV): 96%
remaining activity at 3 µM (-40 mV): 97.4%
remaining activity at 3 µM (-60 mV): 99%
remaining activity at 3 µM (-80 mV): 98%
remaining activity at 3 µM (-100 mV): 97.4%
remaining activity at 3 µM (-120 mV): 96.4%
remaining activity at 3 µM (-140 mV): 96%
remaining activity at 10 µM (0 mV): 86.9%
remaining activity at 10 µM (20 mV): 85.8%
remaining activity at 10 µM (40 mV): 85%
remaining activity at 10 µM (60 mV): 84.7%
remaining activity at 10 µM (80 mV): 84.8%
remaining activity at 10 µM (100 mV): 86%
remaining activity at 10 µM (120 mV): 86.5%
remaining activity at 10 µM (140 mV): 87.9%
remaining activity at 10 µM (-20 mV): 88%
remaining activity at 10 µM (-40 mV): 90.2%
remaining activity at 10 µM (-60 mV): 89.1%
remaining activity at 10 µM (-80 mV): 88.5%
remaining activity at 10 µM (-100 mV): 89.4%
remaining activity at 10 µM (-120 mV): 88.8%
remaining activity at 10 µM (-140 mV): 89%
remaining activity at 30 µM (0 mV): 64.5%
remaining activity at 30 µM (20 mV): 64.5%
remaining activity at 30 µM (40 mV): 63.6%
remaining activity at 30 µM (60 mV): 62.9%
remaining activity at 30 µM (80 mV): 60.8%
remaining activity at 30 µM (100 mV): 62.7%
remaining activity at 30 µM (120 mV): 62.8%
remaining activity at 30 µM (140 mV): 65.9%
remaining activity at 30 µM (-20 mV): 64.6%
remaining activity at 30 µM (-40 mV): 66.2%
remaining activity at 30 µM (-60 mV): 68.7%
remaining activity at 30 µM (-80 mV): 68.6%
remaining activity at 30 µM (-100 mV): 69.3%
remaining activity at 30 µM (-120 mV): 71.3%
remaining activity at 30 µM (-140 mV): 73.4%
remaining activity at 100 µM (0 mV): 43.2%
remaining activity at 100 µM (20 mV): 42.1%
remaining activity at 100 µM (40 mV): 40.7%
remaining activity at 100 µM (60 mV): 40.1%
remaining activity at 100 µM (80 mV): 38.7%
remaining activity at 100 µM (100 mV): 39.6%
remaining activity at 100 µM (120 mV): 40.6%
remaining activity at 100 µM (140 mV): 42.9%
remaining activity at 100 µM (-20 mV): 44.4%
remaining activity at 100 µM (-40 mV): 47.1%
remaining activity at 100 µM (-60 mV): 49.1%
remaining activity at 100 µM (-80 mV): 49.4%
remaining activity at 100 µM (-100 mV): 50.5%
remaining activity at 100 µM (-120 mV): 52.6%
remaining activity at 100 µM (-140 mV): 52.8%
IC50 (20 mV, 15 µM Ca2+): 63.2 µM
IC50 (40 mV, 15 µM Ca2+): 60.2 µM
IC50 (60 mV, 15 µM Ca2+): 58.2 µM
IC50 (80 mV, 15 µM Ca2+): 54.9 µM
IC50 (100 mV, 15 µM Ca2+): 59.3 µM
IC50 (120 mV, 15 µM Ca2+): 60.9 µM
IC50 (140 mV, 15 µM Ca2+): 69.5 µM
IC50 (-20 mV, 15 µM Ca2+): 68.2 µM
IC50 (-40 mV, 15 µM Ca2+): 76.6 µM
IC50 (-60 mV, 15 µM Ca2+): 83.4 µM
IC50 (-80 mV, 15 µM Ca2+): 83.4 µM
IC50 (-100 mV, 15 µM Ca2+): 87.4 µM
IC50 (-120 mV, 15 µM Ca2+): 94.4 µM
IC50 (-140 mV, 15 µM Ca2+): 98.6 µM
IC50 (G510P, V 0 mV): 65.7 µM
IC50 (G510P, V 20 mV): 63.2 µM
IC50 (G510P, V 40 mV): 60.2 µM
IC50 (G510P, V 60 mV): 58.2 µM
IC50 (G510P, V 80 mV): 54.9 µM
IC50 (G510P, V 100 mV): 59.3 µM
IC50 (G510P, V 120 mV): 60.9 µM
IC50 (G510P, V 140 mV): 69.5 µM
IC50 (G510P, V -20 mV): 68.2 µM
IC50 (G510P, V -40 mV): 76.6 µM
IC50 (G510P, V -60 mV): 83.4 µM
IC50 (G510P, V -80 mV): 83.4 µM
IC50 (G510P, V -100 mV): 87.4 µM
IC50 (G510P, V -120 mV): 94.4 µM
IC50 (G510P, V -140 mV): 98.6 µM

From publication PMC9120017, “Inhibition mechanism of the chloride channel TMEM16A by the pore blocker 1PBC” (Nature Communications, 2022)
